The target in test [1] is T1, human GABA-A α2β3γ2 ion channels (Homo sapiens, UniProt P28472+P47869).
T1 construct: expressed in transfected cells
T1 sequence (P47869 29-451): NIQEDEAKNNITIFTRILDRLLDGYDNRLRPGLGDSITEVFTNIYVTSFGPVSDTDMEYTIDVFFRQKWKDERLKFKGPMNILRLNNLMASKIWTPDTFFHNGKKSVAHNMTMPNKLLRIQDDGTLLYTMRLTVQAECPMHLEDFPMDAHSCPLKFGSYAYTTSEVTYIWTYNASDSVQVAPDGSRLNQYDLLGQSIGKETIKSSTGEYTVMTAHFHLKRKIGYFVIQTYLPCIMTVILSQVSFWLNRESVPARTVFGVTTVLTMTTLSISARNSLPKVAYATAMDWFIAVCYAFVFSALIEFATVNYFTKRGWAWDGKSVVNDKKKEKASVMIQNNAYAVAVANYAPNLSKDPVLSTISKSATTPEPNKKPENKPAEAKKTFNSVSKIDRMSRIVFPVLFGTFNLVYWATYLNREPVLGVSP
T1 sequence (P28472 26-473): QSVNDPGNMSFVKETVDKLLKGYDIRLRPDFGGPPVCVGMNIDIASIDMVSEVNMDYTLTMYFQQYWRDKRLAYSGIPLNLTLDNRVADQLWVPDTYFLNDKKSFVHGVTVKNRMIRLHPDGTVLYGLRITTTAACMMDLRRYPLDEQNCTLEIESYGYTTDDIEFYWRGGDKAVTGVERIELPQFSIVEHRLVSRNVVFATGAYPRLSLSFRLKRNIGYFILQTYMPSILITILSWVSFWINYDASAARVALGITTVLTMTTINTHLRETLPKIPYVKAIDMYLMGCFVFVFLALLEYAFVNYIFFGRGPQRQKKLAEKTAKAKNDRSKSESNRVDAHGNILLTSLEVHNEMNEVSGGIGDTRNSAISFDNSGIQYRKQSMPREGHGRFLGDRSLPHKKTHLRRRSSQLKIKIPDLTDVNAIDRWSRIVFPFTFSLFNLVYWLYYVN
T1 sequence (P18507 40-467 partner limits assumed): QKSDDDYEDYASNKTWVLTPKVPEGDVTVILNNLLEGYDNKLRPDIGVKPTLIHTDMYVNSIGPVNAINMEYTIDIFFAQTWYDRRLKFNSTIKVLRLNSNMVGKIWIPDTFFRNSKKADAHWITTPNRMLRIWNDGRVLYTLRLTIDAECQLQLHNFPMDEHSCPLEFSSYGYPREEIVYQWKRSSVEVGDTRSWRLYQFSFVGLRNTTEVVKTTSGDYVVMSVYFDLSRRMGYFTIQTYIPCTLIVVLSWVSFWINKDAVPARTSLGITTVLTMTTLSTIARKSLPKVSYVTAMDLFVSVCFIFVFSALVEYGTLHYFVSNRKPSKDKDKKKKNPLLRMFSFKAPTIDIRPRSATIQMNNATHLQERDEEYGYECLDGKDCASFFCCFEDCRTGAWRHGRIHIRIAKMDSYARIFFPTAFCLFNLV
The experiment in a line: Human GABA-A receptor IonFlux HT agonist assay (Cl-flux), α2β3γ2. The following applies: for Normalized Percentage Activation, Mean: hGABAA α2β3γ2. In kind it is cell-based. From the text:
(FIG. 12A) Six additions of 0.33% DMSO for 2 seconds were introduced to the cells to act as a time matched vehicle control for the agonist. (FIG. 12B) Note: The test compound was applied over two ‘experimental patterns’ in increasing concentrations. […] Time-matched negative and reference compound data are included for comparison.
[…] Aliquots were taken out and diluted 300× into external buffer to give the final assay concentration. All wells included a final DMSO concentration of 0.33% including all control wells.
(§1) All recordings were obtained from a holding potential of −60 mV. The compound addition sequence that was used for all additions was the same for all assays. […] Each test concentration of compound was applied for 2 seconds followed by 30 seconds wash. The process was repeated with the next ascending concentration of test compound up to a maximum of six concentrations per well (FIG. 14).
(§2) Peak inward currents in response to the additions of compound were measured. […] All data were first exported to an Excel compatible data file and then analyzed using Graph Pad Prism software.

Test [2] has as its target T2, human GABA-A α1β3γ2 ion channels (Homo sapiens, UniProt P14867+P28472).
T2 construct: expressed in transfected cells
T2 sequence (P14867 28-456): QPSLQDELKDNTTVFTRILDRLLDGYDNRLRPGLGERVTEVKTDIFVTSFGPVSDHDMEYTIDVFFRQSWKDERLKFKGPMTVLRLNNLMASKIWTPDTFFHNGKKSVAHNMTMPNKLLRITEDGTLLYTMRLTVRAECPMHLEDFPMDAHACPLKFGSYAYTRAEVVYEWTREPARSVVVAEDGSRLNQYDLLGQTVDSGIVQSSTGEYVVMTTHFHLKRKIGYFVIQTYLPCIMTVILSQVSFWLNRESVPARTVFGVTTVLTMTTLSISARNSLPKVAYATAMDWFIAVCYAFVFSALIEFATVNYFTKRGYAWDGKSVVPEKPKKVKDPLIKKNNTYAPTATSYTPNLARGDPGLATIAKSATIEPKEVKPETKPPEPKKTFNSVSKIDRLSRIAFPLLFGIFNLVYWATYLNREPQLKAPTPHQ
T2 sequence (P28472 26-473): T1 sequence (P28472 26-473)
T2 sequence (P18507 40-467 partner limits assumed): T1 sequence (P18507 40-467 partner limits assumed)
The experiment in a line: Human GABA-A receptor IonFlux HT agonist assay (Cl-flux), α1β3γ2. The format is cell-based. As to conditions: for Normalized Peak hGABAA α1β3γ2 Current (%) Agonist, Mean: normalized to EC100 GABA (30 μM). Here is the method:
Six additions of 0.33% DMSO for 2 seconds were introduced to the cells to act as a time matched vehicle control for the agonist. Note: The test compound was applied over two ‘experimental patterns’ in increasing concentrations. […] Time-matched negative and reference compound data are included for comparison.
The supplied compounds were prepared in DMSO to concentrations that were 300× the final assay concentrations of 0.1, 0.3, 1, 3, 10, 30 and 100 μM. Aliquots were taken out and diluted 300× into external buffer to give the final assay concentration. All wells included a final DMSO concentration of 0.33% including all control wells.
as §1, §2

Values joined by “and” are separate entries in the source; they are usually repeats but may differ in a detail not shown here. Equal values may be shown once. “Also recorded” adds a separate entry of the source. Where a name gives a salt, the structure may show the parent alone. Read-outs that look alike come from different tables or passages of the source.

Turning to `NC1C=C(C(=O)O)CCC1` (centres unmarked) [Compound 5, 3-aminocyclohex-1-enecarboxylic acid hydrochloride], the EC50 (as a rule, the concentration at which the effect is half-maximal) in test [1] was above 1000 µM. The “Normalized Percentage Activation, Mean” value is given as 1.42% in test [1] (0.3 μM); 1.28% in test [1] (1 μM); 1.23% in test [1] (3 μM); 1.56% in test [1] (10 μM); 1.48% in test [1] (30 μM); 1.96% in test [1] (100 μM). The “Normalized Percentage Activation, Mean” value in test [1] (300 μM) was determined as 1.77%; in test [1] (1000 μM), 1.64%. Further, in test [1] (hydrochloride), the “agonism of α2β3γ2-containing GABAA receptor (in words)” value was “not an agonist; also recorded: no agonism”. For the same molecule, the “agonism of α1β3γ2-containing GABAA receptor (in words)” value in test [2] is on record as “not an agonist”. In addition, the “Normalized Peak hGABAA α1β3γ2 Current (%) Agonist, Mean” value in test [2] (0.1 μM) was 0.58%; in test [2] (0.3 μM) it was 0.56%; in test [2] (1 μM), 0.58%; in test [2] (3 μM), 0.62%; in test [2] (10 μM) it was 0.79%; in test [2] (30 μM), 0.57%. In addition, the “Normalized Peak hGABAA α1β3γ2 Current (%) Agonist, Mean” value in test [2] (100 μM) came to 0.49%.

Turning to `O=C(O)C1=CCNCC1` [Isoguvacine, isoguvacine], the “Normalized Percentage Activation, Mean” value is 2.09% in test [1] (0.3 μM); 4.69% in test [1] (1 μM); 10.43% in test [1] (3 μM); 32.71% in test [1] (10 μM); 63.48% in test [1] (30 μM); 85.91% in test [1] (100 μM). Further, the entries for the “Normalized Percentage Activation, Mean” value in test [1] (300 μM) and in test [1] (1000 μM) were 99.01% and 100.05%, respectively. The EC50 was 18.7 µM in test [1] (GABAA receptor chloride flux assay, read-out: Estimated EC50 (μM), activation of α2β3γ2-containing GABAA receptors); 23.3 µM and 19.7 µM in test [2] (GABAA receptor chloride flux assay, read-out: EC50, activation of α1β3γ2-containing GABAA receptors). The “Normalized Peak hGABAA α1β3γ2 Current (%) Agonist, Mean” value is on record as 0.55% in test [2] (0.1 μM); 1.02% in test [2] (0.3 μM); 1.92% in test [2] (1 μM); 4.94% in test [2] (3 μM); 21.18% in test [2] (10 μM); 53.29% in test [2] (30 μM). Moreover, the “Normalized Peak hGABAA α1β3γ2 Current (%) Agonist, Mean” value in test [2] (100 μM) worked out at 79.91%.

The record behind these values is US12252457B2, “Compositions and methods for reducing tactile dysfunction, anxiety, and social impairment” (President and Fellows of Harvard College, priority 2018, dated 2025).
